Reference: ChEMBL document CHEMBL3044776, “Microwave-assisted synthesis, pharmacological evaluation, and QSAR studies of 1,3-diaryl-2-propen-1-ones” (Med Chem Res, 2012)

How the values were obtained:
[1] = system: Rattus norvegicus; experiment: Anti-inflammatory activity in Rattus norvegicus Wistar (rat) assessed as inhibition of carrageenan-induced paw edema at 160 mg/kg, po administered 30 min prior to carrageenan challenge measured at 4 hr relative to control; assay type: functional
[2] = system: Mus musculus; experiment: Analgesic activity in Mus musculus Swiss albino (mouse) assessed as inhibition of acetic acid-induced writhing at 160 mg/kg, po administered 30 min prior challenge measured after 5 min of challenge for next 30 min relative to control; assay type: functional
[3] = system: Mus musculus; experiment: Toxicity in Mus musculus Swiss albino (mouse) assessed as mortality at 500 to 2000 mg/kg, po measured after 14 days; assay type: organism-based; design: dose 500-2000 mg/kg, route oral; details: in vivo, 336 h
[4] = system: Mus musculus; experiment: Toxicity in Mus musculus Swiss albino (mouse) assessed as changes in behavioral pattern at 500 to 2000 mg/kg, po measured after 14 days; assay type: organism-based; design: dose 500-2000 mg/kg, route oral; details: in vivo, 336 h
[5] = system: Mus musculus; experiment: Toxicity in Mus musculus Swiss albino (mouse) assessed as abnormal changes in eyes at 500 to 2000 mg/kg, po measured after 14 days; assay type: organism-based; design: dose 500-2000 mg/kg, route oral; details: in vivo, 336 h
[6] = system: Mus musculus; experiment: Toxicity in Mus musculus Swiss albino (mouse) assessed as abnormal changes in fur at 500 to 2000 mg/kg, po measured after 14 days; assay type: organism-based; design: dose 500-2000 mg/kg, route oral; details: in vivo, 336 h
[7] = system: Mus musculus; experiment: Toxicity in Mus musculus Swiss albino (mouse) assessed as abnormal changes in skin at 500 to 2000 mg/kg, po measured after 14 days; assay type: organism-based; design: dose 500-2000 mg/kg, route oral; details: in vivo, 336 h
[8] = system: Mus musculus; experiment: Analgesic activity in Mus musculus Swiss albino (mouse) assessed as inhibition of acetic acid-induced writhing at 10 mg/kg, po administered 30 min prior challenge measured after 5 min of challenge for next 30 min relative to control; assay type: functional
[9] = system: Rattus norvegicus; experiment: Anti-inflammatory activity in Rattus norvegicus Wistar (rat) assessed as inhibition of carrageenan-induced paw edema at 10 mg/kg, po administered 30 min prior to carrageenan challenge measured at 4 hr relative to control; assay type: functional

SMILES	inhibition in vivo at 160 mg/kg [1] [%]	inhibition in vivo at 160 mg/kg [2] [%]	Activity [3]	Activity [4]	Activity [5]	Activity [6]	Activity [7]	inhibition in vivo at 10 mg/kg [8] [%]	inhibition in vivo at 10 mg/kg [9] [%]
COc1ccc(C(=O)/C=C/c2ccccc2O)cc1	76.1	50.7	Non-toxic	Non-toxic	Non-toxic	Non-toxic	Non-toxic	–	–
O=C(/C=C/c1ccc(F)cc1)c1ccc(-c2ccccc2)cc1	76.8	56.5	Non-toxic	Non-toxic	Non-toxic	Non-toxic	Non-toxic	–	–
COc1ccc(/C=C/C(=O)c2ccc(Br)cc2)cc1	67.7	70.8	Non-toxic	Non-toxic	Non-toxic	Non-toxic	Non-toxic	–	–
COc1ccc(C(=O)/C=C/c2ccccc2)cc1 [4'-METHOXYCHALCONE]	69.8	25.7	Non-toxic	Non-toxic	Non-toxic	Non-toxic	Non-toxic	–	–
COc1ccc(C(=O)/C=C/c2ccc(O)c(OC)c2)cc1	80	89.6	Non-toxic	Non-toxic	Non-toxic	Non-toxic	Non-toxic	–	–
O=C(/C=C/c1ccc(O)cc1)c1ccc(-c2ccccc2)cc1	74.8	66.7	Non-toxic	Non-toxic	Non-toxic	Non-toxic	Non-toxic	–	–
O=C(/C=C/c1ccc(Cl)cc1)c1ccc(-c2ccccc2)cc1	52.9	74.3	Non-toxic	Non-toxic	Non-toxic	Non-toxic	Non-toxic	–	–
COc1ccc(C(=O)/C=C/c2ccc(N(C)C)cc2)cc1	69.8	47.9	Non-toxic	Non-toxic	Non-toxic	Non-toxic	Non-toxic	–	–
COc1cc(/C=C/C(=O)c2ccc(-c3ccccc3)cc2)cc(OC)c1OC	78.7	85.4	Non-toxic	Non-toxic	Non-toxic	Non-toxic	Non-toxic	–	–
COc1ccc(/C=C/C(=O)c2ccc(-c3ccccc3)cc2)cc1	74.8	83.3	Non-toxic	Non-toxic	Non-toxic	Non-toxic	Non-toxic	–	–
CN(C)c1ccc(/C=C/C(=O)c2ccc(-c3ccccc3)cc2)cc1	58.7	72.9	Non-toxic	Non-toxic	Non-toxic	Non-toxic	Non-toxic	–	–
O=C(/C=C/c1ccccc1Cl)c1ccc(-c2ccccc2)cc1	61.9	85.1	Non-toxic	Non-toxic	Non-toxic	Non-toxic	Non-toxic	–	–
O=C(/C=C/c1ccccc1)c1ccc(-c2ccccc2)cc1	68.4	71.5	Non-toxic	Non-toxic	Non-toxic	Non-toxic	Non-toxic	–	–
COc1cc(/C=C/C(=O)c2ccc(-c3ccccc3)cc2)cc(OC)c1	63.2	84.7	Non-toxic	Non-toxic	Non-toxic	Non-toxic	Non-toxic	–	–
O=C(/C=C/c1ccoc1)c1ccc(-c2ccccc2)cc1	52.9	51.4	Non-toxic	Non-toxic	Non-toxic	Non-toxic	Non-toxic	–	–
O=C(/C=C/c1ccccc1[N+](=O)[O-])c1ccc(-c2ccccc2)cc1	45.2	40.3	Non-toxic	Non-toxic	Non-toxic	Non-toxic	Non-toxic	–	–
COc1ccc(/C=C/C(=O)c2ccc(OC)cc2)cc1 [4,4'-DIMETHOXYCHALCONE]	72.9	87.5	Non-toxic	Non-toxic	Non-toxic	Non-toxic	Non-toxic	–	–
CC(=O)Oc1ccccc1C(=O)O [ASPIRIN]	–	–	–	–	–	–	–	88.9	–
COc1ccc2c(c1)c(CC(=O)O)c(C)n2C(=O)c1ccc(Cl)cc1 [INDOMETHACIN]	–	–	–	–	–	–	–	–	79.3
CN(C)c1ccc(/C=C/C(=O)c2ccc(Br)cc2)cc1	54.5	31.9	Non-toxic	Non-toxic	Non-toxic	Non-toxic	Non-toxic	–	–
COc1ccc(C(=O)/C=C/c2ccc(Cl)cc2)cc1	77.6	48.6	Non-toxic	Non-toxic	Non-toxic	Non-toxic	Non-toxic	–	–
O=C(/C=C/c1ccccc1O)c1ccc(-c2ccccc2)cc1	80.6	75.7	Non-toxic	Non-toxic	Non-toxic	Non-toxic	Non-toxic	–	–
